How the values were obtained:
[1] = system: CD274 mRNA; test: RT-PCR for CD274 mRNA in ALK+ TCL cells; format: cell-based, human; conditions: SUDHL-1 cells; rapamycin 300 nM, wortmannin 20 nM, U0126 15 μM, Jak3 inhibitor 1 μM
Procedure: Total RNA was isolated using RNeasy Mini kit (Qiagen), treated with DNase I (Invitrogen), and reverse-transcribed by using Thermoscript RT-PCR system (Invitrogen) with random hexamers as cDNA synthesis primers. The following primer pairs were used for the cDNA amplification: β-actin, 5'[…] ID NO: 1) and 5'[…] ID NO: 2); CD274, 5'[…] ID NO: 3) and 5'[…] ID NO: 4). PCR was performed by using Platium […] polymerase (Invitrogen) for 21 cycles comprised of the denaturation step for 20 seconds at 94° C., annealing for 30 seconds at 58° C. and elongation for 30 seconds at 72° C. The PCR products were visualized by ethium bromide staining in 1.5% agarose gel. […] Inhibitors of: […] Marzec et al., 2007, Oncogene 26: 813-821; Marzec et al., 2007, Oncogene 26: 5606-5614; Marzec et al., 2008, Cancer Res 68: 1083-1091). A mixture of four STAT3 or STAT5b specific siRNA or non-targeting siRNA (all purchased from Dharmacon) was introduced into cells at 100 nM by lipofection with the hew generation Lipofectamine (DMRIE-C; Invitrogen). The procedure was repeated after 24 hours and the cells were cultured for an additional 24 hours. The cells were harvested at one time point 48 hours after first transfection. Extend of the protein knock-down was examined by Flow Cytometry and RT-PCR.

[2] = system: CD274 protein; test: Flow cytometry for cell-surface CD274 protein in ALK+ TCL cells; format: cell-based, human; conditions: SUDHL-1 cells; rapamycin 300 nM, wortmannin 20 nM, U0126 15 μM, Jak3 inhibitor 1 μM
Procedure: All antibodies were purchased from BD Pharmingen. The stained cells were applied to the flow cytometer (FACSCalibur; Becton Dickinson), and 20,000 events were analyzed. Results of the cell staining are presented as histograms with cell number on the vertical axis and relative fluorescence on the logarithmic horizontal axis. […] Inhibitors of: […] Marzec et al., 2007, Oncogene 26: 813-821; Marzec et al., 2007, Oncogene 26: 5606-5614; Marzec et al., 2008, Cancer Res 68: 1083-1091). A mixture of four STAT3 or STAT5b specific siRNA or non-targeting siRNA (all purchased from Dharmacon) was introduced into cells at 100 nM by lipofection with the hew generation Lipofectamine (DMRIE-C; Invitrogen). The procedure was repeated after 24 hours and the cells were cultured for an additional 24 hours. The cells were harvested at one time point 48 hours after first transfection. Extend of the protein knock-down was examined by Flow Cytometry and RT-PCR.

N#CC(=C(/N)Sc1ccccc1N)/C(C#N)=C(\N)Sc1ccccc1N [U0126]
CD274 expression on the mRNA level (RT-PCR) [1]: no detectable impact
CD274 expression on the protein level (flow cytometry) [2]: no detectable impact
